Here are results for ten compounds from ChEMBL document CHEMBL1201862, “PubChem BioAssay data set” (2004).

Among the test systems are IGROV-1; OVCAR-5; UACC-257; CCRF-CEM; A549; SK-OV-3; SW-620; SR; SN12C; SNB-19; UO-31; A498; U-251; SNB-75; NCI-H226; ACHN; PC-3; CAKI-1; RPMI-8226.
Common to all, as to experiment: NCI tumour cell line growth inhibition, 48 h

Structures are written as SMILES.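 In this assay, cells in 96-well plates receive the compound at five concentrations for 48 hours. Endpoints are linearly interpolated between the surrounding concentrations. The concentration for 50% growth inhibition is given as GI50.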 Active and inactive are the calls of the source. No stated cut-off is given here; in the data, active = GI50 up to about 1.1 µM and inactive = higher.

With `CN(C)CC1CN(C(=O)Nc2ccccc2)C(=N)O1` (stereo not given), the GI50 in the experiment on IGROV-1, in the experiment with OVCAR-5, in the experiment with UACC-257, in the experiment on CCRF-CEM, with A549 and with SK-OV-3 was > 100 µM (inactive) each time. In addition, the GI50 with SW-620, in the experiment on SR, with SN12C, with SNB-19, in the experiment on UO-31 and with A498 was > 100 µM (inactive) in each case. Besides, the GI50 in the experiment on U-251, in the experiment with SNB-75, in the experiment on NCI-H226, in the experiment on ACHN, with PC-3 and with CAKI-1 was > 100 µM (inactive) in each case. The GI50 in the experiment with RPMI-8226 is > 100 µM (inactive).
`CC1=NN(C(=O)c2ccncc2)C(=O)C1/N=N/c1ccc2ccccc2c1` (stereo not given): the GI50 was 22.9 µM (inactive) with IGROV-1; > 60.7 µM (inactive) with OVCAR-5; > 100 µM (inactive) with UACC-257; 64.6 µM (inactive) with CCRF-CEM; 28.1 µM (inactive) with A549; > 100 µM (inactive) in the experiment with SK-OV-3. The GI50 was 38.7 µM (inactive) with SW-620; 5.3 µM (inactive) with SR; > 100 µM (inactive) in the experiment with SN12C; > 100 µM (inactive) with SNB-19; > 100 µM (inactive) with UO-31; > 100 µM (inactive) in the experiment on A498. Besides, the GI50 in the experiment with U-251 was > 91 µM (inactive); in the experiment on SNB-75, > 100 µM (inactive); in the experiment with NCI-H226 it was > 100 µM (inactive); in the experiment with ACHN, > 100 µM (inactive); in the experiment on PC-3, > 100 µM (inactive); in the experiment on CAKI-1, > 100 µM (inactive). In addition, the GI50 in the experiment with RPMI-8226 is > 50.6 µM (inactive).
As to `COC(=O)c1ccc(NC(=O)O/N=C(\Cl)C(C)C)cc1`, the GI50 with IGROV-1 was 13.9 µM (inactive); in the experiment on OVCAR-5, 17.1 µM (inactive); in the experiment on UACC-257, 15.2 µM (inactive); in the experiment on CCRF-CEM, 0.466 µM (active); with A549, 19.5 µM (inactive); with SK-OV-3, 17.8 µM (inactive). Also, the GI50 with SW-620 was 1.93 µM (inactive); with SR, 1.18 µM (inactive); in the experiment with SN12C, 6.19 µM (inactive); in the experiment on SNB-19, 16.9 µM (inactive); in the experiment on UO-31, 15.4 µM (inactive); in the experiment with A498, 18.4 µM (inactive). Further, the GI50 was 16.6 µM (inactive) in the experiment with U-251; 7.78 µM (inactive) with SNB-75; 18.9 µM (inactive) in the experiment with NCI-H226; 1.74 µM (inactive) in the experiment with ACHN; 17.3 µM (inactive) in the experiment on PC-3; 1.69 µM (inactive) with CAKI-1. The GI50 in the experiment with RPMI-8226 was 1.83 µM (inactive).
As to `Cc1ccc(S(=O)(=O)N/N=C2/CC3CCC4CC2CC34)cc1` (stereo not given), the GI50 with IGROV-1, in the experiment on OVCAR-5, with UACC-257, in the experiment with CCRF-CEM, in the experiment on A549 and with SK-OV-3 was > 100 µM (inactive) in each case. Also, the GI50 was > 100 µM (inactive) with SW-620; > 100 µM (inactive) in the experiment on SR; > 100 µM (inactive) in the experiment with SN12C; > 100 µM (inactive) in the experiment on SNB-19; 25.4 µM (inactive) in the experiment with UO-31; > 100 µM (inactive) in the experiment on A498. Further, the GI50 with U-251, in the experiment with SNB-75, in the experiment with NCI-H226, in the experiment on ACHN, in the experiment on PC-3 and in the experiment on CAKI-1 was > 100 µM (inactive) throughout. The GI50 in the experiment with RPMI-8226 is > 100 µM (inactive).
In the case of `COc1ccc(OC)c(NC(=O)C(=O)Nn2c(S)nc3ccccc3c2=O)c1`, the GI50 in the experiment on IGROV-1 is 88.1 µM (inactive); in the experiment with OVCAR-5, > 100 µM (inactive); in the experiment on UACC-257 it was > 100 µM (inactive); with CCRF-CEM, > 100 µM (inactive); with A549, > 100 µM (inactive); in the experiment with SK-OV-3 it was > 100 µM (inactive). Moreover, the GI50 in the experiment with SW-620, in the experiment on SR, with SN12C, with SNB-19, in the experiment with UO-31 and in the experiment on A498 was > 100 µM (inactive) throughout. Further, the GI50 with U-251, with SNB-75, with NCI-H226, with ACHN, with PC-3 and with CAKI-1 was > 100 µM (inactive) throughout. Moreover, the GI50 in the experiment with RPMI-8226 was > 100 µM (inactive).
For the compound `C[C@H](CCC(=O)NCCS(=O)(=O)O)[C@H]1CC[C@H]2[C@@H]3CC[C@@H]4C[C@H](O)CC[C@]4(C)[C@H]3CC[C@]12C`, the GI50 in the experiment with IGROV-1, in the experiment on OVCAR-5, with UACC-257, with CCRF-CEM, with A549 and in the experiment on SK-OV-3 was > 100 µM (inactive) in each case. Moreover, the GI50 in the experiment on SW-620 is > 100 µM (inactive); with SR it was 28.7 µM (inactive); in the experiment with SN12C, > 100 µM (inactive); in the experiment with SNB-19, > 100 µM (inactive); in the experiment with UO-31, > 100 µM (inactive); in the experiment with A498, > 100 µM (inactive). Moreover, the GI50 in the experiment on U-251, with SNB-75, with NCI-H226, in the experiment with ACHN, with PC-3 and in the experiment on CAKI-1 was > 100 µM (inactive) each time. Also, the GI50 with RPMI-8226 is > 100 µM (inactive).
Regarding `CC(=O)O[C@H]1C[C@]2(O)[C@@H]3CC[C@@H]4C[C@@H](O)CC[C@]4(C)[C@H]3CC[C@]2(C)[C@H]1C1=CC(=O)OC1`, the GI50 in the experiment with IGROV-1 was 0.103 µM (active); with OVCAR-5 it was 0.182 µM (active); with UACC-257 it was 0.18 µM (active); in the experiment with CCRF-CEM it was 0.0375 µM (active); with A549 it was < 0.0144 µM (active); with SK-OV-3 it was 0.214 µM (active). In addition, the GI50 in the experiment on SW-620 was 0.125 µM (active); in the experiment on SR, 0.0315 µM (active); in the experiment on SN12C it was 0.037 µM (active); in the experiment with SNB-19, 0.381 µM (active); in the experiment with UO-31 it was 0.0632 µM (active); in the experiment on A498, 0.0977 µM (active). For the same compound, the GI50 with U-251 was 0.128 µM (active); in the experiment on SNB-75 it was 0.153 µM (active); in the experiment with NCI-H226 it was 0.288 µM (active); in the experiment with ACHN, 0.031 µM (active); in the experiment on PC-3 it was 0.0662 µM (active); in the experiment on CAKI-1 it was 0.034 µM (active). The GI50 in the experiment with RPMI-8226 is 0.0982 µM (active).
For the compound `O=C(NC(Cc1c[nH]c2ccccc12)C(=O)O)/C(=C/c1ccccc1)NC(=O)c1ccccc1` (stereo not given), the GI50 with IGROV-1 is 32.1 µM (inactive); with OVCAR-5, 56.1 µM (inactive); in the experiment with UACC-257, > 88.7 µM (inactive); in the experiment with CCRF-CEM, > 66.4 µM (inactive); in the experiment with A549, 38.2 µM (inactive); with SK-OV-3 it was 54.2 µM (inactive). Also, the GI50 in the experiment with SW-620 was > 100 µM (inactive); in the experiment with SR, > 100 µM (inactive); with SN12C, > 100 µM (inactive); in the experiment on SNB-19, > 92 µM (inactive); in the experiment with UO-31, 53.2 µM (inactive); in the experiment on A498, > 81.8 µM (inactive). Also, the GI50 in the experiment with U-251 is 46.8 µM (inactive); with SNB-75, 32.7 µM (inactive); with NCI-H226 it was > 100 µM (inactive); in the experiment on ACHN, > 94.8 µM (inactive); with PC-3, 50.5 µM (inactive); in the experiment with CAKI-1, > 95.1 µM (inactive). Further, the GI50 with RPMI-8226 was 32.4 µM (inactive).
Take `CNc1c2cccc(C)c2nc2c(C(=O)NCCN(C)C)cccc12`: the GI50 in the experiment with IGROV-1 was 0.0483 µM (active); with OVCAR-5, 0.162 µM (active); in the experiment on UACC-257, 0.211 µM (active); in the experiment with CCRF-CEM it was 0.0374 µM (active); in the experiment with A549, 0.034 µM (active); with SK-OV-3, 0.252 µM (active). In addition, the GI50 in the experiment with SW-620 is < 0.0288 µM (active); in the experiment on SR it was < 0.0288 µM (active); in the experiment with SN12C, 0.0282 µM (active); with SNB-19, 0.0805 µM (active); in the experiment on UO-31 it was 0.2 µM (active); with A498 it was 0.213 µM (active). Further, the GI50 in the experiment with U-251 is 0.149 µM (active); in the experiment with SNB-75 it was 0.051 µM (active); with NCI-H226, 0.116 µM (active); with ACHN, < 0.024 µM (active); in the experiment on PC-3, 0.158 µM (active); in the experiment on CAKI-1, < 0.0344 µM (active). For the same compound, the GI50 in the experiment on RPMI-8226 is 0.0604 µM (active).
As for `O=[N+]([O-])C(=C(N1CCOCC1)N1CCOCC1)/C(Cl)=C(\Cl)[N+](=O)[O-]`, the GI50 was 1.41 µM (inactive) with IGROV-1; 14.6 µM (inactive) with OVCAR-5; 5.55 µM (inactive) in the experiment on UACC-257; 2.65 µM (inactive) in the experiment on CCRF-CEM; 23.1 µM (inactive) in the experiment on A549; 52.7 µM (inactive) in the experiment on SK-OV-3. For the same compound, the GI50 in the experiment on SW-620 was 2.23 µM (inactive); in the experiment on SR it was 8.77 µM (inactive); with SN12C, 2.01 µM (inactive); in the experiment on SNB-19, 25.8 µM (inactive); in the experiment on UO-31, 6.71 µM (inactive); with A498 it was 20.2 µM (inactive). The GI50 is 18.9 µM (inactive) with U-251; 19.4 µM (inactive) in the experiment on SNB-75; 47 µM (inactive) in the experiment on NCI-H226; 6.31 µM (inactive) in the experiment on ACHN; 16.4 µM (inactive) in the experiment on PC-3; 1.64 µM (inactive) with CAKI-1. For the same compound, the GI50 with RPMI-8226 is 2.31 µM (inactive).
